Laboratory results published in PubChem BioAssay AID179 (DTP/NCI, 2004).
Calls of active or inactive are those of the source.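 How the source made its calls: active means compounds giving half or more protection of infected cells from virus-caused growth loss, again on retest; inactive means the rest.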 Where a SMILES comes first, the peptide text is derived from it. The star is where a group is joined. Cbz = O=C(OCc1ccccc1)*; Boc = CC(C)(C)OC(=O)*; OcHex = C1CCC(O*)CC1

Test system: CEM cells HIV-1 protection, formazan growth assay
Assay: NCI AIDS Antiviral Assay
Details: for IC50: measured here: growth of uninfected CEM cells
Summary of the method: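 Steps: treat uninfected and HIV-1-infected human CEM cells at five drug levels; quantify growth by soluble formazan; retest any compound reaching 50% protection; classify actives from the retest.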

Row | Structure (SMILES) | EC50 | IC50 | outcome
1 | CCCCCCCCCCCCCCCCC(c1ccc(O)c(C(=O)O)c1)c1ccc(O)c(C(=O)O)c1 | > 229 µM | 91.2 µM | –
2 | S=C1SCC2CCCN12 (configuration not stated) | – | – | inactive
3 | CCOC(=O)/C(C#N)=C/c1[nH]c(C)c(C)c1C | – | – | inactive
4 | CC(C)Oc1nc(N2CCNCC2)nc2c1CCCC2 | – | – | inactive
5 | CCCCCCCCCCCCCCCCCCC(C(=O)O)C(=O)O | > 708 µM | 347 µM | –
6 | [Cl][Ni+2][Cl].[NH-]CCN1CC1 | > 200 µM | 40.7 µM | –
7 | CCCc1cc(=O)oc2c3c(cc(OC(C)COC)c12)O[C@H](C)[C@@H](C)[C@@H]3O (some centres not stated) | 4.68 µM | 29.5 µM | –
8 | CC1CN(C2C=CC(=O)CC2)C(=O)NC1=O (configuration not stated) | > 1120 µM | 7.76 µM | –
9 | Cc1nc(C)c(N2CCN(C#N)CC2)c(=O)[nH]1 | > 200 µM | > 200 µM | –
10 | CC(=O)OCC1OC(n2cc(F)c(=O)[nH]c2=O)C(NC(=O)N(CCCl)N=O)C(OC(C)=O)C1OC(C)=O (configuration not stated) | > 457 µM | 66.1 µM | –
11 | COc1ccc(OC2OC(COC(c3ccccc3)(c3ccc(OC)cc3)c3ccc(OC)cc3)C(O)C(O)C2O)cc1 (configuration not stated) | > 200 µM | 8.91 µM | –
12 | C=C1C(=O)OC2C3C(C)=CC(=O)C3=C(C)CC[C@@H]12 (some centres not stated) | > 30.9 µM | 2.04 µM | –
13 | O=c1[nH]nc(Cc2ccccc2)n1CCO | – | – | inactive
14 | Cc1nnc2n(c1=O)CCCN2C | > 200 µM | > 200 µM | –
15 | O=C(O)CC1SC2(C(=O)N(Cc3ccccc3)c3ccccc32)N(c2ccccc2)C1=O (configuration not stated) | > 200 µM | > 100 µM | –
16 | CSc1nc2c(c(N(C)C)n1)C(O)n1c(nc3ccccc31)S2 (configuration not stated) | > 200 µM | > 200 µM | –
17 | O=C1c2c(O)cccc2[C@H](O)[C@]23O[C@]12CC[C@]1(O)CCC[C@@H](O)[C@@H]13 | > 20 µM | 0.977 µM | –
18 | COc1cc2c(cc1O)[C@H](Cc1ccc(Oc3cc(C[C@H]4c5cc(OC)c(OC)cc5CCN4C)ccc3OC)cc1)NCC2 | – | – | inactive
19 | Cn1cc2ccccc2c1-c1nc(F)nc(OCC(=O)[C@H]2CCC3[C@@H]4CCC5=CC(=O)CC[C@]5(C)C4[C@@H](O)C[C@@]32C)n1 (some centres not stated) | > 9.12 µM | 2.75 µM | –
20 | COC1(C)C(=O)NC(=O)N(C2C=CC(CO)O2)C1O (configuration not stated) | 7.41 µM | 170 µM | –
21 | CCOC(=O)C(=O)N1C(C)=C(C(=O)OCC)CC(C(=O)OCC)=C1C | > 200 µM | > 200 µM | –
22 | CC(C)C1CSC2N1C(=O)C2(OCc1ccccc1)C1CC1 (configuration not stated) | > 200 µM | 81.3 µM | –

Row | Structure (SMILES) | EC50 | IC50 | outcome
23 | CC1=C(c2ccc(C)cc2)NC(=S)C(C)C(c2ccc(C)cc2)=N1 (configuration not stated) | > 200 µM | 97.7 µM | –
24 | COc1cc2c(cc1OC)NC(=O)CC(=O)N2 | > 200 µM | > 200 µM | –
25 | CCOP(=O)(OCC)O/C(C)=C\C(=O)OC | > 501 µM | > 501 µM | –
26 | CCOC(=O)c1ccc(/C(C#N)=C/c2ccc(Cl)cc2)cc1 | > 200 µM | > 200 µM | –
27 | N#Cc1c2ccccc2cn1-c1ccc(F)cc1 | > 200 µM | 79.4 µM | –
28 | C/C(=C1/N=C(c2cc([N+](=O)[O-])ccc2Cl)N(C2=CC=C(Cl)CC2)C1=O)c1cc2ccccc2oc1=O | > 19.1 µM | > 19.1 µM | –
29 | O=C(N/C(=C\c1ccccc1)C1Nc2ccccc2C(=O)O1)c1ccccc1 (configuration not stated) | > 200 µM | 17.4 µM | –
30 | C=CCNC(=S)N/C=C(\C#N)C(N)=O | > 200 µM | > 200 µM | –
31 | CCCCCCCCCCCCCCCCCC(=O)OCC1OC(OC)C(NC(=O)N(CCCl)N=O)C(O)C1O (configuration not stated) | > 8.71 µM | > 8.71 µM | –
32 | CN(C)/C=C/c1c2c(nc3ccccc13)C(=O)c1ccccc1C2=O | > 100 µM | 2.24 µM | –
33 | Cc1ccc(SC(=O)N2C(=S)NC(=NC3CCCCC3)C23CCCCC3)cc1 | > 200 µM | 32.4 µM | –
34 | CCCCCCOc1ccc(C(=N)N(CCCC)CCCC)c2ccccc12 | > 200 µM | 3.39 µM | –
35 | COC(=O)CCC(=O)CC(=O)C(=O)Nc1c(Cl)cc([N+](=O)[O-])cc1Cl | > 18.2 µM | > 18.2 µM | –
36 | O=C1CCC2(c3ccc(Cl)cc3)Nc3ccc(Cl)cc3N12 (configuration not stated) | > 16.2 µM | > 16.2 µM | –
37 | NC(CCc1nc(-c2ccc(Cl)cc2)cs1)C(=O)O (configuration not stated) | – | – | inactive
38 | CCN(CC)CCNCC(O)CN1CCN(C)CC1 (configuration not stated) | > 200 µM | 155 µM | –
39 | N#CSC#Cc1ccc(C#CSC#N)cc1 | > 200 µM | 2.4 µM | –
40 | CCOC(=O)C(C)c1c(C(=O)c2ccc(C)nc2)c2ccccc2n1C (configuration not stated) | – | – | inactive
41 | CN(C)c1ccc(/C=C2\CCCCCC2=O)cc1 | > 200 µM | 26.9 µM | –
42 | COC(=O)C1(C(=O)OC)C2(CCCC2)C1(C(=O)OC)C(=O)OC | > 200 µM | > 200 µM | –
43 | O/N=C1/CC2(N3CCOCC3)C3CC/C(=N\O)C2CC1(Cc1ccccc1)C3 (configuration not stated) | > 200 µM | 123 µM | –
44 | CC(O)c1c2c(cc3c1CC1(C3)Cc3cc4c(c(C(C)O)c3C1)CCC4)CCC2 (configuration not stated) | > 200 µM | 9.55 µM | –

Row | Structure (SMILES) | EC50 | IC50 | outcome
45 | CC(=O)Nc1ccc(/C=C/c2ccc(N=C=S)cc2S(=O)(=O)O)c(S(=O)(=O)O)c1 | > 21.9 µM | > 21.9 µM | –
46 | C[C@]12CCC3[C@@H](CC[C@@H]4/C(=N\O)C(=O)/C(=N\O)C[C@]34C)C1C/C(=N\O)C2=O (some centres not stated) | – | – | inactive
47 | CNC(=O)OCC1=CC(=O)C(C)=CC1=O | > 60.3 µM | 5.5 µM | –
48 | CC(=O)OCC1OC(n2cnc([N+](=O)[O-])c2Br)C(OC(C)=O)C1OC(C)=O (configuration not stated) | > 200 µM | 11.7 µM | –
49 | CCOC(=O)Cc1ccc2c(c1O)C(=O)c1c(ccc(CC(=O)OCC)c1O)C2=O | – | – | inactive
50 | CC(C)CC(NC(=O)OC(C)(C)C)C(=O)NC(CCC(=O)OC1CCCCC1)C(N)=O (stereo not drawn) (Boc-Leu-Glu(OcHex)-NH2; configuration not given here) | > 200 µM | 126 µM | –
51 | CC1=NC(C)=C(/C(C)=N/NC(=O)c2ccccc2O)C(C)/C1=C(/C)NNC(=O)c1ccccc1O (configuration not stated) | > 186 µM | 8.71 µM | –
52 | O=C(OCc1ccccc1)N1CCNCCN(C(=O)OCc2ccccc2)CCNCC1 | > 200 µM | 87.1 µM | –
53 | c1ccc(COc2ccc3[nH]c4c(ncc5[nH]c6ccccc6c54)c3c2)cc1 | – | – | inactive
54 | COC1CCON1C(=O)c1ccccc1 (configuration not stated) | > 200 µM | > 200 µM | –
55 | Cn1ccnc1.Cn1ccnc1.NCCN.[Cl-].[Pt+4] | > 200 µM | > 200 µM | –
56 | O=C(O)[C@H](NS(=O)(=O)c1ccc([N+](=O)[O-])cc1)c1ccccc1 | – | – | inactive
57 | O=C1CC2C3CC1C2C(=O)O3 (configuration not stated) | > 200 µM | > 200 µM | –
58 | O=C(NP(=O)(N1CC1)N1CC1)OCc1ccccc1 | > 200 µM | > 200 µM | –
59 | COc1cc(O)c(/C=N\O)c(OC)c1 | > 912 µM | 83.2 µM | –
60 | CCOC(=O)C1=C(O)CSC1=Nc1ccccc1 | – | – | inactive
61 | S=c1[nH]nc(-c2ccccc2Cl)o1 | > 200 µM | 195 µM | –
62 | c1ccc(-c2nnc(SSSSc3nnc(-c4ccccc4)o3)o2)cc1 | > 200 µM | 107 µM | –
63 | COc1ccc(/C=C(\C#N)c2nc3ccccc3c(=O)[nH]2)cc1 | – | – | active
64 | O=C(O)C(Cc1ccccc1)NC(=O)C1CCCN1C(=O)OCc1ccccc1 (stereo not drawn) (Cbz-Pro-Phe-OH; configuration not given here) | > 631 µM | > 631 µM | –
65 | CN(C)CCNc1ccc2ncnc3c2c1C(=O)c1ccccc1-3 | > 1 µM | 0.219 µM | –
